biological target: Human CD38 (Homo sapiens (Human), UniProt P28907); experiment: CD38 enzyme assay; assay type: biochemical; settings: 2 nM CD38, NAD+ substrate, absorbance at 405 nm
In short: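 IC50 values come from fitting % inhibition against compound concentration with a 4-parameter logistic, or a 3-parameter fit with top/bottom fixed at 100/0 or Hill at 1. Inhibition is scaled between DMSO wells and positive-control wells treated with a quinolinone CD38 inhibitor.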

Human CD38, sequence (P28907 whole entry): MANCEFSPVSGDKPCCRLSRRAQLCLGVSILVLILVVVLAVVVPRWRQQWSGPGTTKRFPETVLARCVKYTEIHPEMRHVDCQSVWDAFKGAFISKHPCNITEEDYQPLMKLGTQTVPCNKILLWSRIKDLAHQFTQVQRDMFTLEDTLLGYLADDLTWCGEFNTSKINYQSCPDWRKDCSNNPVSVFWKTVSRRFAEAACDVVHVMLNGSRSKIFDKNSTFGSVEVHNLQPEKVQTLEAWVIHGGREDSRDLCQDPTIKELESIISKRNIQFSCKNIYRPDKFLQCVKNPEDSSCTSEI

Row | IC50 | Compound
1 | 10 to 100 nM | O=C(N[C@H]1CC[C@@H](OCC(F)(F)F)CC1)c1nc(-n2ccnc2)cc2cn[nH]c12 [Example 251, 5-(1H-imidazol-1-yl)-N-((1s,4s)-4-(2,2,2-trifluoroethoxy)cyclohexyl)-1H-pyrazolo[3,4-c]pyridine-7-carboxamide]
2 | 10 to 100 nM | O=C(N[C@H]1CC[C@H](OCC(F)(F)F)CC1)c1nc(-n2ccnc2)cc2cn[nH]c12 [Example 252, 5-(1H-imidazol-1-yl)-N-((1r,4r)-4-(2,2,2-trifluoroethoxy)cyclohexyl)-1H-pyrazolo[3,4-c]pyridine-7-carboxamide]
3 | 10 to 100 nM | CC(C)(N[C@H]1CC[C@H](NC(=O)c2nc(-n3ccnc3)cc3cn[nH]c23)CC1)C(F)F [Example 253, N-((1r,4r)-4-((1,1-difluoro-2-methylpropan-2-yl)amino)cyclohexyl)-5-(1H-imidazol-1-yl)-1H-pyrazolo[3,4-c]pyridine-7-carboxamide]
4 | 100 to 1000 nM | CC(C)(N[C@H]1CC[C@@H](NC(=O)c2nc(-n3ccnc3)cc3cn[nH]c23)CC1)C(F)F [Example 254, N-((1s,4s)-4-((1,1-difluoro-2-methylpropan-2-yl)amino)cyclohexyl)-5-(1H-imidazol-1-yl)-1H-pyrazolo[3,4-c]pyridine-7-carboxamide]
5 | 10 to 100 nM | O=C(N[C@H]1CC[C@H](N2CC(F)(F)C2)CC1)c1nc(-n2ccnc2)nc2cn[nH]c12 [Example 255, N-((1r,4r)-4-(3,3-difluoroazetidin-1-yl)cyclohexyl)-5-(1H-imidazol-1-yl)-1H-pyrazolo[4,3-d]pyrimidine-7-carboxamide]
6 | 100 to 1000 nM | CC1(F)CN([C@H]2CC[C@@H](NC(=O)c3nc(-n4ccnc4)nc4cn[nH]c34)CC2)C1 [Example 256, N-((1s,4s)-4-(3-fluoro-3-methylazetidin-1-yl)cyclohexyl)-5-(1H-imidazol-1-yl)-1H-pyrazolo[4,3-d]pyrimidine-7-carboxamide]
7 | 10 to 100 nM | CC1(F)CN([C@H]2CC[C@H](NC(=O)c3nc(-n4ccnc4)nc4cn[nH]c34)CC2)C1 [Example 257, N-((1r,4r)-4-(3-fluoro-3-methylazetidin-1-yl)cyclohexyl)-5-(1H-imidazol-1-yl)-1H-pyrazolo[4,3-d]pyrimidine-7-carboxamide]
8 | < 10 nM | CC(C)(O)[C@H]1CC[C@H](NC(=O)c2nc(-n3ccnc3)cc3ccsc23)CC1 [Example 260, N-((1r,4r)-4-(2-hydroxypropan-2-yl)cyclohexyl)-5-(1H-imidazol-1-yl)thieno[2,3-c]pyridine-7-carboxamide]
9 | < 10 nM | O=C(N[C@H]1CC[C@H](NCC(F)F)CC1)c1nc(-n2ccnc2)cc2ccsc12 [Example 261, N-((1r,4r)-4-((2,2-difluoroethyl)amino)cyclohexyl)-5-(1H-imidazol-1-yl)thieno[2,3-c]pyridine-7-carboxamide]
10 | 10 to 100 nM | CC(F)(F)CN[C@H]1CC[C@H](NC(=O)c2nc(-n3ccnc3)cc3ccsc23)CC1 [Example 262, N-((1r,4r)-4-((2,2-difluoropropyl)amino)cyclohexyl)-5-(1H-imidazol-1-yl)thieno[2,3-c]pyridine-7-carboxamide]
11 | < 10 nM | O=C(N[C@H]1CC[C@H](C2(O)CC2)CC1)c1nc(-n2ccnc2)cc2ccsc12 [Example 263, N-((1r,4r)-4-(1-hydroxycyclopropyl)cyclohexyl)-5-(1H-imidazol-1-yl)thieno[2,3-c]pyridine-7-carboxamide]
12 | 10 to 100 nM | CC(C)(O)[C@H]1C[C@H](NC(=O)c2nc(-n3ccnc3)nc3cn[nH]c23)C1 [Example 265, N-((1r,3r)-3-(2-hydroxypropan-2-yl)cyclobutyl)-5-(1H-imidazol-1-yl)-1H-pyrazolo[4,3-d]pyrimidine-7-carboxamide]
13 | 10 to 100 nM | CC(C)(O)[C@H]1C[C@H](NC(=O)c2nc(-n3ccnc3)cc3cn[nH]c23)C1 [Example 266, N-((1r,3r)-3-(2-hydroxypropan-2-yl)cyclobutyl)-5-(1H-imidazol-1-yl)-1H-pyrazolo[3,4-c]pyridine-7-carboxamide]
14 | 10 to 100 nM | COCCO[C@H]1CC[C@H](NC(=O)c2nc(-n3ccnc3)nc3c(C)c[nH]c23)CC1 [Example 268, 2-(1H-imidazol-1-yl)-N-((1r,4r)-4-(2-methoxyethoxy)cyclohexyl)-7-methyl-5H-pyrrolo[3,2-d]pyrimidine-4-carboxamide]
15 | 10 to 100 nM | N#CC1CN([C@H]2CC[C@H](NC(=O)c3nc(-n4ccnc4)cc4cn[nH]c34)CC2)C1 [Example 269, N-((1r,4r)-4-(3-cyanoazetidin-1-yl)cyclohexyl)-5-(1H-imidazol-1-yl)-1H-pyrazolo[3,4-c]pyridine-7-carboxamide]
16 | 10 to 100 nM | O=C(N[C@H]1CC[C@H](NCC(F)(F)F)CC1)c1nc(-n2ccnc2)cc2ccsc12 [Example 270, 5-(1H-imidazol-1-yl)-N-((1r,4r)-4-((2,2,2-trifluoroethyl)amino)cyclohexyl)thieno[2,3-c]pyridine-7-carboxamide]
17 | 10 to 100 nM | O=C(N[C@H]1CC[C@H](CNCC(F)(F)F)CC1)c1nc(-n2ccnc2)nc2cn[nH]c12 [Example 271]
18 | 10 to 100 nM | CC(C)(N[C@H]1CC[C@H](NC(=O)c2nc(-n3ccnc3)nc3cc[nH]c23)CC1)C(F)(F)F [Example 272, 2-(1H-imidazol-1-yl)-N-((1r,4r)-4-((1,1,1-trifluoro-2-methylpropan-2-yl)amino)cyclohexyl)-5H-pyrrolo[3,2-d]pyrimidine-4-carboxamide]
19 | 10 to 100 nM | CC(C)(N[C@H]1CC[C@H](NC(=O)c2nc(-n3ccnc3)nc3cc[nH]c23)CC1)C(F)F [Example 273, N-((1r,4r)-4-((1,1-difluoro-2-methylpropan-2-yl)amino)cyclohexyl)-2-(1H-imidazol-1-yl)-5H-pyrrolo[3,2-d]pyrimidine-4-carboxamide]
20 | 10 to 100 nM | C[C@]1(NCC(F)(F)F)CC[C@@H](NC(=O)c2nc(-n3ccnc3)nc3cn[nH]c23)CC1 [Example 274, 5-(1H-imidazol-1-yl)-N-((1s,4s)-4-methyl-4-((2,2,2-trifluoroethyl)amino)cyclohexyl)-1H-pyrazolo[4,3-d]pyrimidine-7-carboxamide]
21 | 100 to 1000 nM | C[C@]1(NCC(F)(F)F)CC[C@H](NC(=O)c2nc(-n3ccnc3)nc3cn[nH]c23)CC1 [Example 275, 5-(1H-imidazol-1-yl)-N-((1r,4r)-4-methyl-4-((2,2,2-trifluoroethyl)amino)cyclohexyl)-1H-pyrazolo[4,3-d]pyrimidine-7-carboxamide]
22 | 10 to 100 nM | CC(C)(N[C@H]1CC[C@H](NC(=O)c2nc(-n3ccnc3)nc3cn[nH]c23)CC1)C(F)(F)F [Example 276, 5-(1H-imidazol-1-yl)-N-((1r,4r)-4-((1,1,1-trifluoro-2-methylpropan-2-yl)amino)cyclohexyl)-1H-pyrazolo[4,3-d]pyrimidine-7-carboxamide]
23 | 100 to 1000 nM | CC(C)(N[C@H]1CC[C@@H](NC(=O)c2nc(-n3ccnc3)nc3cn[nH]c23)CC1)C(F)(F)F [Example 277, 5-(1H-imidazol-1-yl)-N-((1s,4s)-4-((1,1,1-trifluoro-2-methylpropan-2-yl)amino)cyclohexyl)-1H-pyrazolo[4,3-d]pyrimidine-7-carboxamide]

Row | Compound | IC50
24 | COCCO[C@H]1CC[C@H](NC(=O)c2nc(-n3ccnc3)nc3cc[nH]c23)CC1 [Example 7, 2-(1H-Imidazol-1-yl)-N-((1r,4r)-4-(2-methoxyethoxy)cyclohexyl)-5H-pyrrolo[3,2-d]pyrimidine-4-carboxamide] | 10 to 100 nM
25 | CC1(C#N)CN([C@H]2CC[C@H](NC(=O)c3nc(-n4ccnc4)cc4cn[nH]c34)CC2)C1 [Example 258, N-((1r,4r)-4-(3-cyano-3-methylazetidin-1-yl)cyclohexyl)-5-(1H-imidazol-1-yl)-1H-pyrazolo[3,4-c]pyridine-7-carboxamide] | 10 to 100 nM
26 | CC1(C#N)CN([C@H]2CC[C@@H](NC(=O)c3nc(-n4ccnc4)cc4cn[nH]c34)CC2)C1 [Example 259, N-((1s,4s)-4-(3-cyano-3-methylazetidin-1-yl)cyclohexyl)-5-(1H-imidazol-1-yl)-1H-pyrazolo[3,4-c]pyridine-7-carboxamide] | 100 to 1000 nM
27 | C[C@@H](O)[C@H]1CC[C@H](NC(=O)c2nc(-n3ccnc3)cc3ccsc23)CC1 [Example 264a, N-((1R,4r)-4-((R)-1-hydroxyethyl)cyclohexyl)-5-(1H-imidazol-1-yl)thieno[2,3-c]pyridine-7-carboxamide] | < 10 nM
28 | C[C@H](O)[C@H]1CC[C@H](NC(=O)c2nc(-n3ccnc3)cc3ccsc23)CC1 [Example 264b, N-((1S,4r)-4-((S)-1-hydroxyethyl)cyclohexyl)-5-(1H-imidazol-1-yl)thieno[2,3-c]pyridine-7-carboxamide] | 10 to 100 nM

tested on: B16-F10 tumor; experiment: Efficacy study in a B16F10 model (survival); assay type: in vivo, C57BL/6 mouse; settings: Example 7 300 mg/kg p.o. QD in combination with anti-mPD-L1 10 mg/kg i.p. QW; over vehicle or anti-mPD-L1 treated mice; p value <0.0001
Description: B16-F10 tumor cells (ATCC, Cat #CRL-6475) were maintained in vitro as a monolayer culture in DMEM medium (Gibco, Cat #11995-040) supplemented with 10% heat inactivated fetal bovine serum (Biological Industries, Cat #04-002-1A), 100 U/mL penicillin and 100 µg/mL streptomycin (Hyclone, Cat #SV30010) at 37° C. in an atmosphere of 5% CO2 in air. The tumor cells were routinely subcultured twice weekly by trypsin-EDTA (Gibco, Cat #25200-072) treatment. The cells growing to a confluency around 70%-80% were harvested and counted for tumor inoculation. The cultured B16-F10 cells were harvested, re-suspended in base medium at a density of 2×10^7 cells/mL with viability>90%. 6-8 weeks of Female C57BL/6 mouse (Shanghai LingChang Biotech Co., LTD) was inoculated subcutaneously at the right flank with 1×10^6 in 0.05 mL base medium for tumor development. Tumors were calipered in two dimensions to monitor growth as the mean volume approached the desired range. Tumor volume (TV) was calculated using the formula: TV=0.5 a×b2 where a and b are the long and short diameters of the tumor.
Mice were assigned into 4 groups with 12 mice per group. […] The tumor sizes were measured three times per week during the treatment. Survival was monitored with tumor volume exceeding 2000 mm3 as endpoint. […]

Row | Compound | percent survival of B16-F10 tumor bearing mice
29 | COCCO[C@H]1CC[C@H](NC(=O)c2nc(-n3ccnc3)nc3cc[nH]c23)CC1 [Example 7, 2-(1H-Imidazol-1-yl)-N-((1r,4r)-4-(2-methoxyethoxy)cyclohexyl)-5H-pyrrolo[3,2-d]pyrimidine-4-carboxamide] | significant survival benefit

— patent US11535621B2, “Heterobicyclic amides as inhibitors of CD38” (Ribon Therapeutics, Inc., priority 2019, dated 2022)
